In data set [1] the test system is M. tuberculosis strain H37Rv. Briefly: micro-dilution broth MIC99 assay in GAST media. Format: cell-based. Conditions: for MIC99: read-out: day 28 MIC99; for inhibition of bacterial growth: 28-day period.
For data set [2], the system named is Mtb-infected bone marrow derived macrophages (BMDM). The data set is described as follows: bacterial load in Mtb-infected bone marrow derived macrophages. Format: cell-based. Conditions: for effect on SnPPIX-induced reduction in bacillary load: incubated in conjunction with SnPPIX; for number of bacteria: iron donor added alone; for reduction in the number of bacilli: iron chelating agent added to SnPPIX; for intracellular bacterial burden: iron chelating agent alone.

Data set [3] relates to GFP-expressing M. tuberculosis/pMSP12. The data set is described as follows: microbe, parasite or virus in culture. Format: cell-based. Conditions: for MIC: read-out: day 21 MIC95.
The test system of data set [4] is M. tuberculosis strain H37Rv. Type of data set: in vivo, mice.
Another data set concerns the target T1, M. tuberculosis MhuD (Mycobacterium tuberculosis, UniProt P9WKH3).
T1 construct: His6 (C); made in house; host or cells: Escherichia coli BL21-Gold (DE3)
Briefly: MhuD heme/SnPPIX degradation assay by UV/vis spectroscopy. Format: biochemical.

The target of data set [5] is T2, recombinant human HO-1-G139A (hHO-1) (Homo sapiens, UniProt P09601, G139A).
T2 construct: made in house
T2 sequence (P09601 1-288 G139A): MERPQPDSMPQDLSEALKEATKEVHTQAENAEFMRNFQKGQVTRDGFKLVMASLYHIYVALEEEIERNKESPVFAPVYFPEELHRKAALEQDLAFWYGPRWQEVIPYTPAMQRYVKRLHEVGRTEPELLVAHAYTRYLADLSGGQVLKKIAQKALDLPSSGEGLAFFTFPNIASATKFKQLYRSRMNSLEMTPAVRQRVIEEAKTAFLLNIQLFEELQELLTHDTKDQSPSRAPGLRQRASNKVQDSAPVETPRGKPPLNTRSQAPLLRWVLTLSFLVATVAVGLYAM
Briefly: heme degradation by recombinant human HO-1-G139A, UV/vis spectroscopy. Format: biochemical. The conditions noted are these: 2 μM SnPPIX, 1 hour.

For the next data set, the system named is heme oxygenase. The conditions noted are these: comparison SnPPIX vs ZnPPIX; cited from earlier work.
The conditions of data set [6]: newborns, clinical use; cited from earlier work.
For data set [7] the following is noted: comparison ZnPPIX vs SnPPIX; cited from earlier work.

Molecules are shown by their SMILES. Converted amounts (≈) assume the structure as drawn. “Also recorded” adds a separate entry of the source. Like-named read-outs stand apart in the source and are kept apart here.

T1 sequence (P9WKH3 whole entry): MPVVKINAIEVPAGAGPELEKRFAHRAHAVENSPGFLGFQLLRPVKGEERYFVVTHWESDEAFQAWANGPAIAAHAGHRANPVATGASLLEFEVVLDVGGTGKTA

As to `NNC(=O)c1ccncc1` [Isoniazid, reference compound], the MIC99 (as a rule, the lowest concentration that inhibits either 99% of growth or 99% of the strains tested, depending on the study) in [1] (Mycobacterium tuberculosis, H37RV, 672 h, GAST + 10 μM Hemin) is 0.1 µM; in [1] (Mycobacterium tuberculosis, H37RV, 672 h, GAST medium), 0.1 µM (≈ 0.0137 µg/mL); in [1] (Mycobacterium tuberculosis, H37RV, 672 h, GASTFe medium), 0.2 µM (≈ 0.0274 µg/mL).

Turning to `[Cl][Fe]([Cl])[Cl]` [FeCl3], in data set [2], the “effect on SnPPIX-induced reduction in bacillary load” value is reported as “completely inhibited the reduction in bacillary load” and the number of bacteria entry is “did not significantly enhance the number of bacteria”.

`C=Cc1c(C)c2cc3[nH]c(cc4nc(cc5nc(cc1[nH]2)C(C)=C5CCC(=O)[O-])C(CCC(=O)[O-])=C4C)c(C)c3C=C.[Cl-].[Cl-].[Sn+4]` [SnPPIX, tin (IV) protoporphyrin IX dichloride]: the “inhibition of bacterial growth” value in [1] (125 μM, complete (iron-containing) GAST medium) is on record as “No inhibition of bacterial growth was observed”; in data set [1] (125 μM, iron-free medium) it was “toxicity was observed”; in data set [3] (pH 7) it was “no inhibition of bacterial growth was observed”. Also, the “effect of hemin addition on toxicity in iron-free medium” value in [1] (125 μM, iron-free medium plus 10 μM hemin) is listed as “reversed this effect”. The MIC99 in data set [1] (GAST + 10 μM Hemin) is on record as above 125 µM; in [1] (GAST medium), 125 µM; in [1] (GASTFe medium), above 125 µM. Moreover, the MIC in data set [3] (pH 6) and in data set [3] was above 125 µM each time. In data set [4] (C57BL/6, lungs vs mediastinal lymph nodes or spleens), the “effect on bacterial load by organ” value is reported as “more prominent in the lungs”. Also, the “enhancement of RHZ efficacy” value in data set [4] (SnPPIX initiated 6 weeks after initiation of RHZ therapy) is recorded as “failed to enhance RHZ efficacy”. The bacterial loads entry in data set [4] (TCR-α−/− mice, treatment from 4 wpi, euthanized two weeks after initiation) is “indistinguishable from those of untreated”. In data set [4] (mouse, in vivo), the mycobacterial load result is on record as “highly significant reduction”. For the same compound, in data set [4] (mouse, in vivo), the “protection / mortality kinetics” value was “failed to protect”. In addition, the pulmonary bacterial load result in [4] (mouse, in vivo) is listed as “not at 3 wpi; also recorded: no difference in bacterial loads”; in data set [4] (mouse, in vivo, ip, 5 mg/kg) it was “highly significant reduction”. Also, the “reduction in pulmonary bacterial loads below untreated infected mice” value in data set [4] (mouse, in vivo) was around 1 log. The “bacterial loads in lungs and mediastinal lymph nodes vs non-treated mice” value in [4] (mouse, in vivo, ip) was “diminished bacterial loads”. The “effect on heme degradation by MhuD” value on M. tuberculosis MhuD (2 μM SnPPIX, 5 μM MhuD-heme, 1 hour) is listed as “does not appear to have an effect”. The “SnPPIX degradation by MhuD” value on M. tuberculosis MhuD (monitored for 24 hours) is recorded as “no SnPPIX degradation even after 24 hours”. Besides, the “heme-degrading activity of HO-1” value in [5] is on record as “blocked”. Further, the cellular bacterial load result in data set [2] (added alone) is “reduced cellular bacterial load”. The “heme oxygenase inhibitory capacity” value in the data set with heme oxygenase is listed as “higher heme oxygenase inhibitory capacity compared with ZnPPIX”. For the same compound, the side effects entry in data set [6] is recorded as “minimum side effects”.

As for `CO[C@H]1/C=C/O[C@@]2(C)Oc3c(C)c(O)c4c(O)c(c(/C=N/N5CCN(C)CC5)c(O)c4c3C2=O)NC(=O)/C(C)=C\C=C\[C@H](C)[C@H](O)[C@@H](C)[C@@H](O)[C@@H](C)[C@H](OC(C)=O)[C@@H]1C` [Rifampicin, reference compound], the MIC in data set [3] (Mycobacterium tuberculosis, 504 h, pH 6) is 0.04 µM (≈ 0.0329 µg/mL); in data set [3] (Mycobacterium tuberculosis, 504 h), 0.04 µM (≈ 0.0329 µg/mL).

Turning to `O=S(=O)([O-])[O-].[Fe+2]` [FeSO4], in data set [2], the “effect on SnPPIX-induced reduction in bacillary load” value was “completely inhibited the reduction in bacillary load” and the number of bacteria result is reported as “did not significantly enhance the number of bacteria”.

Regarding `C=CC1=C(C)c2cc3[n-]c(cc4[n-]c(cc5nc(cc1n2)C(C)=C5C=C)c(C)c4CCC(=O)O)c(CCC(=O)O)c3C.[Zn+2]` [ZnPPIX, zinc (II) protoporphyrin IX], in [7], the solubility result is recorded as “less soluble than SnPPIX”.

In the case of `c1ccc(-c2ccccn2)nc1` [DP, 2′2′dipyridyl], in [2], the “reduction in the number of bacilli” value was “further enhancement in the reduction” and the intracellular bacterial burden entry is “significant reduction”.

In the case of `Cc1ncc(CO)c(C=NNC(=O)c2ccncc2)c1O` [PIH, pyridoxal isonicotinoyl hydrazone], in data set [2], the “reduction in the number of bacilli” value is “further enhancement in the reduction” and the intracellular bacterial burden result is “significant reduction”.

Source of the values: patent US20190201414A1, “INHIBITOR OF HEME DEGRADATION FOR USE TO IMPROVE ANTIBIOTIC TREATMENT OF MYCOBACTERIUM TUBERCULOSIS INFECTION” (The United States of America, as represented by the …, priority 2016, published 2019).
